Results from ChEMBL document CHEMBL1150339, “Synthesis and anti-breast cancer activities of substituted quinolines” (Bioorg Med Chem Lett, 2008).
pIC50: −log10 of the molar value. The source made the active and inactive calls. No cut-off for these calls is given here.

How the values were obtained:
[1] = test system: T47D; assay: Cell viability of human T47D cells by trypan blue exclusion assay; assay type: functional, cell-based
[2] = test system: T47D; assay: Cell viability of human T47D cells at 10 uM by trypan blue exclusion assay; assay type: functional, cell-based

Row | SMILES | pIC50 [1] | Activity [2]
1 | COc1cc(NCCC(=N)N)c2nccc(C)c2c1Oc1cccc(C(F)(F)F)c1 | 6.28 | 
2 | COc1cc(NCCCN)c2nccc(C)c2c1Oc1cccc(C(F)(F)F)c1 | 6.92 | 
3 | COc1cc(NCc2ccco2)c2nccc(C)c2c1Oc1cccc(C(F)(F)F)c1 | 7.81 | 
4 | COc1cc(N)c2nccc(C)c2c1Oc1cccc(C(F)(F)F)c1 |  | inactive

Continued, in another order:

Row | pIC50 [1] | SMILES | Activity [2]
5 | 5.89 | COc1cc(NCc2cnc[nH]2)c2nccc(C)c2c1Oc1cccc(C(F)(F)F)c1 | 
6 | 5.43 | COc1cc(NCc2cccs2)c2nccc(C)c2c1Oc1cccc(C(F)(F)F)c1 | 
7 | 6.42 | COc1cc(NCCC#N)c2nccc(C)c2c1Oc1cccc(C(F)(F)F)c1 | 
8 | 5.70 | CCOC(=N)CCNc1cc(OC)c(Oc2cccc(C(F)(F)F)c2)c2c(C)ccnc12 | 
